Numbers after ± are expanded uncertainties.
Details: Liquid, Closed cell (Static) method

Row | Structure (SMILES) | vapor or sublimation pressure (243.15 K) [kPa] | vapor or sublimation pressure (253.15 K) [kPa] | vapor or sublimation pressure (263.15 K) [kPa] | vapor or sublimation pressure (273.15 K) [kPa] | vapor or sublimation pressure (283.15 K) [kPa]
1 | F/C=C/C(F)(F)F [trans-1,3,3,3-tetrafluoropropene] | 61 ± 1 | 97 ± 1 | 147.7 ± 1 | 216.4 ± 1.1 | 308.3 ± 1.1
2 | FC(F)(F)I [trifluoroiodomethane] | 71.7 ± 1 | 109 ± 1 | 160.4 ± 1 | 228.2 ± 1.1 | 316.3 ± 1.1
3 | CC(C)C [2-methylpropane] | 46.7 ± 1 | 72.6 ± 1 | 108.7 ± 1 | 157.4 ± 1 | 221 ± 1.1
